One assay deals with VRE 725B. The assay can be described thus: synergy with antibiotics (FIC index, checkerboard). In kind it is cell-based, Enterococcus faecalis. Particulars: combination with VAN, data not shown. The source says: Representatives from various classes were chosen in order to study the potential difference in synergistic activity according to the diverse mechanisms of action and resistance of these drugs. The method of minimal fractional inhibitory concentration (FIC) index (FICI) in a microtitration plate was used. FICI ≤ 0.5 means synergy; 0.5 < FICI < 1 means additivity; 1 ≤ FICI < 4 means indifference; and FICI ≥ 4 means antagonism.
The used VRE strains were isolated from American crows by Oravcova et al., and their genetic profiles were characterized. All the VRE strains were carrying genes vanA, tetM, and ermB. Strains VRE 368 and VRE 725B carried gene aac, which provided acquired aminoglycoside resistance.
For synergy effect study, a method of fractional inhibitory concentration was used. […] Raw H was used for the evaluation of MIC(A); column 12 was used for evaluation of MIC(B). The plate was inoculated by the bacterial suspension to reach final concentration of 5 × 10^5 CFU/mL in the wells. The fractional inhibitory concentration (FIC) index was calculated using the concentrations in the first nonturbid (clear) well found in each row and column along the turbidity/nonturbidity interface. To interpret the combined effect, the lowest FICI was used. A ΣFIC ≤ 0.5 means synergy; 0.5 < ΣFIC < 1 means additivity; 1 ≤ ΣFIC < 4 means indifference; and ΣFIC ≥ 4 means antagonism. The tests were made in duplicate, and the results were averaged.

Assay [1] has as its system S. aureus ATCC 29213 biofilm. Briefly: biofilm inhibition assay (crystal violet). In kind it is cell-based, Staphylococcus aureus. As to conditions: ≥80% inhibition of biofilm formation; for MBIC80 (minimum biofilm inhibitory concentration): 48 h. The method, then:
(§1) The ability of compounds 1f, 1g, and 1h to inhibit biofilm growth and destroy the matured biofilm of S. aureus ATCC 29213 was investigated. The inhibitory activity was studied by the method with crystal violet. The activity to disrupt matured biofilm was evaluated as a decrease of metabolic activity using the MTT assay.
The plates were inoculated by inoculum of S. aureus ATCC 29213 grown in TSB + 2% glucose to exponential phase. Before the inoculation of the plate, the original inoculum was diluted to 1 McFarland and then 1:100 in fresh TSB + 2% glucose, to reach the final concentrations in the wells of […]. […] The plates were incubated at 37 °C for 48 h. After incubation, the contents of the wells were removed, and the plates were washed three times by sterile PBS. After drying, 125 μL of 0.5% crystal violet was added to each well and the plates were stained at room temperature for 20 min. Then the dye was removed, and the plates were washed three times by sterile PBS. The colored biofilm was detached from the wells using 33% solution of acetic acid. The absorbance at 595 nm was measured. As a blank, a non-inoculated plate treated in the same way was used. […] The minimum biofilm inhibitory concentration was the lowest concentration of the compounds, which inhibited the growth of 80% bacteria compared to the growth control. The experiment was made in duplicate and repeated at least three times.

The subject of a further assay is E. faecalis ATCC 29212. Briefly: time-kill study. In kind it is cell-based, Enterococcus faecalis. As to conditions: EF. The text has this:
(§2) Time-kill studies are used to evaluate the dynamics of antibacterial activity. As mentioned above, a pre-test to determine minimum bactericidal concentration (MBC) by sub-cultivation of aliquots on agar was made (see Section 3.4). […] Time-kill studies were made with methicillin-susceptible S. aureus ATCC 29213 and methicillin-resistant MRSA 63718, vancomycin-susceptible E. faecalis ATCC 29212, and all three VRE isolates. Vancomycin was used as a control (Table 6).
(§3) The method of time-kill curves was used to study the bactericidal effect of selected compounds. […] The experiment was performed with S. aureus ATCC 29213, MRSA 63718, E. faecalis ATCC 29212, and all VRE isolates. […] The tubes were inoculated by bacterial inoculum in the exponential phase of growth to get a final concentration of 7.5 × 10^6 CFU/mL. The tubes were incubated statically at 37 °C. Immediately after inoculation and after 4, 6, 8, and 24 h, 100 µL of the sample was serially diluted (1:10) in PBS. Then, 2 × 20 µL from each dilution were put onto a Mueller–Hinton agar plate and cultivated at 37 °C for 24 h. After incubation, CFUs of dilutions containing 5–50 colonies were counted. Results were expressed as a decrease of log10(CFU) in each time compared to the starting inoculum. Bactericidal effect is defined as a −3log decrease of CFU/mL compared to the growth control in time 0. The test was made in duplicate on two separate occasions, and the results were averaged. The growth curves with error bars are shown in Figures S1 and S2 in Supplementary Materials.

A further assay has as its system VRE 342B. Briefly: time-kill study. Format: cell-based, Enterococcus faecalis. Particulars: VRE1.
From the text: as §2, §3

Assay [2] deals with S. aureus ATCC 29213 biofilm. The assay can be described thus: biofilm susceptibility / eradication of preformed biofilm (MTT). As to conditions: for MBEC80 (minimum biofilm eradication concentration): 80% reduction of metabolic activity of preformed biofilm, 24 h. In kind it is cell-based, Staphylococcus aureus. As for the experimental part:
as §1
Biofilms were grown as described above but without the presence of the compounds. After 48 h of incubation at 37 °C, the contents of the wells were removed, and the plates were washed three times by sterile PBS. After washing, 100 µL of tested compounds in CaMH were added to the wells. […] A growth control containing 2.5% of DMSO in CaMH was included. The plates were incubated at 37 °C for 24 h, then the solutions of compounds were removed, and the plates were gently washed three times by sterile PBS. Bacterial viability was analyzed using 100 µL of 0.05 mg/mL MTT (3-(4,5-dimethylthiazol-2-yl)- 2,5-diphenyltetrazolium bromide) in PBS in each well. The plates with MTT were incubated at 37 °C for 1–2 h in darkness, until the blue formazan crystals appeared. MTT solution was removed and the plates were washed once by PBS. Crystals of formazan were dissolved using 17% sodium dodecysulphate in 40% dimethylformamid. The absorbance at 570 nm was measured and the percentage of eradication was counted according to the equation (3) % of eradication = 100 − OD570S/OD570C × 100 where OD570S is the absorbance of the sample at 570 nm and OD570C is the absorbance of the growth control at 570 nm. The minimum biofilm eradication concentration was the lowest concentration of the compound, which reduced the metabolic activity of the biofilm by 80% compared to the growth control. The experiment was made in duplicate and repeated at least three times.

Three compounds from paper PMC7168207, “Dibasic Derivatives of Phenylcarbamic Acid as Prospective Antibacterial Agents Interacting with Cytoplasmic Membrane” (Antibiotics, 2020) can be followed below.

Marks after values point to notes of the source that are not given here.

With `CCCCCCOc1cccc(NC(=O)OC(CN(CCC)CCC)CN2CCCC2)c1.Cl.Cl` (stereo not drawn) [1g, 1-[3-(dipropylammonio)-2-({[3-(hexyloxy)phenyl]carbamoyl}oxy)propyl]pyrrolidinium dichloride], the “effect of the combination with VAN” value in the assay on VRE 725B is reported as “indifferent effect”. In addition, the “minimum biofilm inhibitory concentration relative to MIC against planktonic cells” value in assay [1] is given as “equal to minimum inhibitory concentration against planktonic cells”. Moreover, the “MBIC80 (minimum biofilm inhibitory concentration)” value in assay [1] is on record as 8 µg/mL. The “Log10 Difference in CFU/mL from Inoculum” value in the assay on E. faecalis ATCC 29212 (1 × MIC, 4 h) is listed as −1.63 log10 CFU/mL; with E. faecalis ATCC 29212 (1 × MIC, 6 h), −1.01 log10 CFU/mL; with E. faecalis ATCC 29212 (1 × MIC, 8 h), −0.61 log10 CFU/mL; with E. faecalis ATCC 29212 (1 × MIC, 24 h), 0.27 log10 CFU/mL; in the assay with E. faecalis ATCC 29212 (2 × MIC, 4 h) it was −3.37 * log10 CFU/mL; in the assay with E. faecalis ATCC 29212 (2 × MIC, 6 h), −3.43 * log10 CFU/mL. The “Log10 Difference in CFU/mL from Inoculum” value is reported as −2.68 log10 CFU/mL in the assay on E. faecalis ATCC 29212 (2 × MIC, 8 h); 1.04 log10 CFU/mL in the assay with E. faecalis ATCC 29212 (2 × MIC, 24 h); −5.62 * log10 CFU/mL with E. faecalis ATCC 29212 (4 × MIC, 4 h); −5.14 * log10 CFU/mL in the assay on E. faecalis ATCC 29212 (4 × MIC, 6 h); −5.92 * log10 CFU/mL in the assay with E. faecalis ATCC 29212 (4 × MIC, 8 h); −0.31 log10 CFU/mL in the assay with E. faecalis ATCC 29212 (4 × MIC, 24 h). Besides, the “Log10 Difference in CFU/mL from Inoculum” value in the assay with VRE 342B (1 × MIC, 4 h) is recorded as −0.14 log10 CFU/mL; with VRE 342B (1 × MIC, 6 h), 0.97 log10 CFU/mL; in the assay on VRE 342B (1 × MIC, 8 h) it was 1.01 log10 CFU/mL; in the assay with VRE 342B (1 × MIC, 24 h) it was 1.11 log10 CFU/mL; in the assay on VRE 342B (2 × MIC, 4 h), −0.36 log10 CFU/mL; with VRE 342B (2 × MIC, 6 h), −1.89 log10 CFU/mL. Also, the “Log10 Difference in CFU/mL from Inoculum” value is recorded as −0.64 log10 CFU/mL in the assay on VRE 342B (2 × MIC, 8 h); 1.51 log10 CFU/mL in the assay with VRE 342B (2 × MIC, 24 h); −0.92 log10 CFU/mL in the assay on VRE 342B (4 × MIC, 4 h); −1.00 log10 CFU/mL in the assay on VRE 342B (4 × MIC, 6 h); −1.09 log10 CFU/mL in the assay with VRE 342B (4 × MIC, 8 h); 0.77 log10 CFU/mL in the assay on VRE 342B (4 × MIC, 24 h). The “MBEC80 (minimum biofilm eradication concentration)” value (“MBEC80” below) in assay [2] stood at 16 µg/mL.
For the compound `CCCCCOc1cccc(NC(=O)OC(CN(CCC)CCC)CN2CCCC2)c1.Cl.Cl` (stereo not drawn) [1f, 1-[3-(dipropylammonio)-2-({[3-(pentyloxy)phenyl]carbamoyl}-oxy)propyl]pyrrolidinium dichloride], in assay [1], the “minimum biofilm inhibitory concentration relative to MIC against planktonic cells” value is “two-fold higher” and the “MBIC80 (minimum biofilm inhibitory concentration)” value is on record as 32 µg/mL. Further, the “MBEC80” value in assay [2] is given as 64 µg/mL.
Turning to `CCCCCCCOc1cccc(NC(=O)OC(CN(CCC)CCC)CN2CCCC2)c1.Cl.Cl` (stereo not drawn) [1h, 1-[3-(Dipropylammonio)-2-({[3-(heptyloxy)phenyl]carbamoyl}oxy)propyl]pyrrolidinium dichloride], the “effect of the combination with VAN” value with VRE 725B is recorded as “indifferent effect”. Further, the “minimum biofilm inhibitory concentration relative to MIC against planktonic cells” value in assay [1] was “equal to minimum inhibitory concentration against planktonic cells”. Also, the “MBIC80 (minimum biofilm inhibitory concentration)” value in assay [1] is on record as 8 µg/mL. The “Log10 Difference in CFU/mL from Inoculum” value was −0.64 log10 CFU/mL in the assay with E. faecalis ATCC 29212 (1 × MIC, 4 h); 0.16 log10 CFU/mL in the assay on E. faecalis ATCC 29212 (1 × MIC, 6 h); 0.24 log10 CFU/mL in the assay with E. faecalis ATCC 29212 (1 × MIC, 8 h); 0.34 log10 CFU/mL in the assay on E. faecalis ATCC 29212 (1 × MIC, 24 h); −1.87 log10 CFU/mL in the assay with E. faecalis ATCC 29212 (2 × MIC, 4 h); −1.36 log10 CFU/mL with E. faecalis ATCC 29212 (2 × MIC, 6 h). Moreover, the “Log10 Difference in CFU/mL from Inoculum” value is recorded as −0.86 log10 CFU/mL in the assay with E. faecalis ATCC 29212 (2 × MIC, 8 h); 0.42 log10 CFU/mL in the assay with E. faecalis ATCC 29212 (2 × MIC, 24 h); −2.57 * log10 CFU/mL with E. faecalis ATCC 29212 (4 × MIC, 4 h); −2.23 * log10 CFU/mL in the assay on E. faecalis ATCC 29212 (4 × MIC, 6 h); −1.62 log10 CFU/mL in the assay on E. faecalis ATCC 29212 (4 × MIC, 8 h); 0.49 log10 CFU/mL in the assay with E. faecalis ATCC 29212 (4 × MIC, 24 h). Besides, the “Log10 Difference in CFU/mL from Inoculum” value in the assay with VRE 342B (1 × MIC, 4 h) was 0.07 log10 CFU/mL; with VRE 342B (1 × MIC, 6 h) it was 1.08 log10 CFU/mL; in the assay with VRE 342B (1 × MIC, 8 h), −0.08 log10 CFU/mL; in the assay with VRE 342B (1 × MIC, 24 h) it was 1.42 log10 CFU/mL; with VRE 342B (2 × MIC, 4 h), 0.09 log10 CFU/mL; in the assay on VRE 342B (2 × MIC, 6 h) it was 0.41 log10 CFU/mL. Also, the “Log10 Difference in CFU/mL from Inoculum” value in the assay on VRE 342B (2 × MIC, 8 h) was −0.02 log10 CFU/mL; in the assay on VRE 342B (2 × MIC, 24 h) it was 0.47 log10 CFU/mL; in the assay on VRE 342B (4 × MIC, 4 h), −0.78 log10 CFU/mL; with VRE 342B (4 × MIC, 6 h), −0.99 log10 CFU/mL; with VRE 342B (4 × MIC, 8 h), −0.66 log10 CFU/mL; with VRE 342B (4 × MIC, 24 h), 0.85 log10 CFU/mL. Further, the “concentration giving 80% degradation of preformed biofilm relative to MIC” value in assay [2] is “two-fold”. Also, the “MBEC80” value in assay [2] amounted to 16 µg/mL.
